Assay results reported in PubChem BioAssay AID248 (DTP/NCI, 2004).
Inconclusive results and toxic doses are left out. No stated cut-off is given here; in the data, active means T/C of 150% or more; inactive means T/C below 125%.

Tested on: L1210 leukemia ip in BDF1 mice, survival T/C
Assay: NCI In Vivo Anticancer Drug Screen. Data for tumor model L1210 Leukemia (intraperitoneal) in B6D2F1 (BDF1) mice
Conditions: endpoint: mean survival time, higher = longer survival
Outline: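 Mice bearing the transplanted tumor received compound or vehicle. Survival of the treated group was divided by that of the vehicle-treated control group to give the ratio.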

[1] = dose: 100.0 mg/kg/injection, schedule: Q01DX009 (ip), vehicle: Klucel (hydroxypropylcellulose) (HPC)
[2] = dose: 100.0 mg/kg/injection, schedule: Q04DX003 (ip), vehicle: Klucel (hydroxypropylcellulose) (HPC)
[3] = dose: 200.0 mg/kg/injection, schedule: Q01DX009 (ip), vehicle: Klucel (hydroxypropylcellulose) (HPC)
[4] = dose: 200.0 mg/kg/injection, schedule: Q04DX003 (ip), vehicle: Klucel (hydroxypropylcellulose) (HPC)
[5] = dose: 400.0 mg/kg/injection, schedule: Q01DX009 (ip), vehicle: Klucel (hydroxypropylcellulose) (HPC)
[6] = dose: 400.0 mg/kg/injection, schedule: Q04DX003 (ip), vehicle: Klucel (hydroxypropylcellulose) (HPC)
[7] = dose: 25.0 mg/kg/injection, schedule: Q01DX009 (ip), vehicle: Klucel (hydroxypropylcellulose) (HPC)
[8] = dose: 100.0 mg/kg/injection, schedule: Q04DX003 (ip), vehicle: saline
[9] = dose: 200.0 mg/kg/injection, schedule: Q04DX003 (ip), vehicle: saline
[10] = dose: 400.0 mg/kg/injection, schedule: Q04DX003 (ip), vehicle: saline
[11] = dose: 100.0 mg/kg/injection, schedule: Q01DX001 (ip), vehicle: carboxymethylcellulose (CMC)
[12] = dose: 200.0 mg/kg/injection, schedule: Q01DX001 (ip), vehicle: carboxymethylcellulose (CMC)
[13] = dose: 400.0 mg/kg/injection, schedule: Q01DX001 (ip), vehicle: carboxymethylcellulose (CMC)
[14] = dose: 100.0 mg/kg/injection, schedule: Q04DX002 (ip), vehicle: saline with Tween-80
[15] = dose: 200.0 mg/kg/injection, schedule: Q04DX002 (ip), vehicle: saline with Tween-80
[16] = dose: 400.0 mg/kg/injection, schedule: Q04DX002 (ip), vehicle: saline with Tween-80
[17] = dose: 100.0 mg/kg/injection, schedule: Q04DX003 (ip), vehicle: saline with Tween-80
[18] = dose: 400.0 mg/kg/injection, schedule: Q04DX003 (ip), vehicle: saline with Tween-80

Measured: T/C

COc1ccc2c(c1)CN(S(=O)(=O)c1ccc(C)cc1)C=CC2=O
inactive: [1] 96 % of control | [2] 90 % of control | [3] 104 % of control | [4] 96 % of control | [5] 96 % of control | [6] 98 % of control

CN=C(NC)c1cccc(NC(=O)c2ccc(C(=O)Nc3cccc(C(=NC)NC)c3)c(N)c2)c1
inactive: dose: 0.5 mg/kg/injection, schedule: Q01DX015 (ip), vehicle: water 102 % of control | dose: 1.0 mg/kg/injection, schedule: Q01DX015 (ip), vehicle: water 102 % of control | dose: 2.0 mg/kg/injection, schedule: Q01DX015 (ip), vehicle: water 110 % of control | dose: 3.75 mg/kg/injection, schedule: Q01DX Z (ip), vehicle: water 91 % of control | dose: 4.0 mg/kg/injection, schedule: Q01DX015 (ip), vehicle: water 102 % of control | dose: 7.5 mg/kg/injection, schedule: Q01DX Z (ip), vehicle: water 87 % of control | dose: 15.0 mg/kg/injection, schedule: Q01DX Z (ip), vehicle: water 93 % of control

N#CC1(N2CCC3(CC2)OCCO3)CCCCC1
inactive: dose: 12.5 mg/kg/injection, schedule: Q01DX009 (ip), vehicle: Klucel (hydroxypropylcellulose) (HPC) 101 % of control | dose: 12.5 mg/kg/injection, schedule: Q04DX003 (ip), vehicle: Klucel (hydroxypropylcellulose) (HPC) 91 % of control | [7] 95 % of control | dose: 25.0 mg/kg/injection, schedule: Q04DX002 (ip), vehicle: Klucel (hydroxypropylcellulose) (HPC) 107 % of control | dose: 25.0 mg/kg/injection, schedule: Q04DX003 (ip), vehicle: Klucel (hydroxypropylcellulose) (HPC) 100 % of control | dose: 50.0 mg/kg/injection, schedule: Q04DX002 (ip), vehicle: Klucel (hydroxypropylcellulose) (HPC) 96 % of control | dose: 100.0 mg/kg/injection, schedule: Q04DX002 (ip), vehicle: Klucel (hydroxypropylcellulose) (HPC) 95 % of control

CSC(=S)NC#N
inactive: dose: 50.0 mg/kg/injection, schedule: Q01DX009 (ip), vehicle: saline 93 % of control | dose: 100.0 mg/kg/injection, schedule: Q01DX009 (ip), vehicle: saline 93 % of control | [8] 101 % of control | dose: 200.0 mg/kg/injection, schedule: Q01DX009 (ip), vehicle: saline 89 % of control | [9] 106 % of control | [10] 98 % of control

CCC(C1CCC(O)CC1)C(CC)C1CCC(C2=CC(=O)OC2)CC1 (stereo not given)
inactive: dose: 25.0 mg/kg/injection, schedule: Q04DX003 (ip), vehicle: saline 100 % of control | dose: 50.0 mg/kg/injection, schedule: Q04DX003 (ip), vehicle: saline 94 % of control | [8] 94 % of control

COc1ccc(/C=C2/c3c(c(-c4ccccc4)c4ccccc4c3-c3ccccc3)S2(=O)=O)cc1
inactive: dose: 50.0 mg/kg/injection, schedule: Q01DX001 (ip), vehicle: carboxymethylcellulose (CMC) 97 % of control | [11] 95 % of control | [12] 95 % of control | [13] 86 % of control

Cc1cc(OC(=O)Nc2ccccc2C(F)(F)F)cc(C)c1Cl
inactive: dose: 100.0 mg/kg/injection, schedule: Q01DX009 (ip), vehicle: saline with Tween-80 109 % of control | [14] 91 % of control | dose: 200.0 mg/kg/injection, schedule: Q01DX009 (ip), vehicle: saline with Tween-80 102 % of control | [15] 95 % of control | [16] 98 % of control

CCCCCCCCCCCCCSc1ccc(Br)cc1
inactive: [17] 96 % of control | dose: 200.0 mg/kg/injection, schedule: Q04DX003 (ip), vehicle: saline with Tween-80 96 % of control | [18] 96 % of control

O=[N+]([O-])c1cc(Cl)cc2c1-c1ccc(Cl)cc1C2
inactive: [2] 98 % of control | [4] 98 % of control | [6] 98 % of control

CC1CC=C(N2CCOCC2)CC1 (stereo not given)
inactive: [1] 98 % of control | [3] 97 % of control | [5] 103 % of control

CCCCCCCCCCCC(c1ccccc1)[N+](C)(C)Cc1ccccc1 (stereo not given)
inactive: dose: 0.25 mg/kg/injection, schedule: Q01DX015 (ip), vehicle: saline 108 % of control | dose: 0.5 mg/kg/injection, schedule: Q01DX015 (ip), vehicle: saline 103 % of control | dose: 1.0 mg/kg/injection, schedule: Q01DX015 (ip), vehicle: saline 115 % of control | dose: 2.0 mg/kg/injection, schedule: Q01DX015 (ip), vehicle: saline 114 % of control | dose: 2.5 mg/kg/injection, schedule: Q01DX001 (ip), vehicle: carboxymethylcellulose (CMC) 93 % of control

NC(=O)NCO
inactive: [14] 94 % of control | [15] 94 % of control | [16] 90 % of control

Cc1ccc(C(=O)OCC(C)C)s1
inactive: [11] 98 % of control | [12] 101 % of control | [13] 98 % of control

CCOc1ccc(NC(=O)Nc2ccccc2Cl)cc1
inactive: dose: 6.0 mg/kg/injection, schedule: Q01DX009 (ip), vehicle: Klucel (hydroxypropylcellulose) (HPC) 93 % of control | dose: 12.0 mg/kg/injection, schedule: Q01DX009 (ip), vehicle: Klucel (hydroxypropylcellulose) (HPC) 88 % of control | [7] 97 % of control | dose: 25.0 mg/kg/injection, schedule: Q01DX009 (ip), vehicle: gum acacia 89 % of control | dose: 200.0 mg/kg/injection, schedule: Q01DX009 (ip), vehicle: gum acacia 91 % of control | dose: 200.0 mg/kg/injection, schedule: Q04DX003 (ip), vehicle: gum acacia 92 % of control | dose: 400.0 mg/kg/injection, schedule: Q04DX003 (ip), vehicle: gum acacia 90 % of control

CC(Br)C1=CC(c2ccccc2)(c2ccccc2)c2ccccc21 (stereo not given)
inactive: [17] 90 % of control | [18] 90 % of control

OCC(Cl)(Cl)Cl
inactive: [8] 104 % of control | [9] 96 % of control | [10] 107 % of control
